According to paper PMC5666514 (Chemical Science, 2015):

Tested on: HeLa cells
Experiment: DEVDase (caspase 3/7) activity, Ac-DEVD-AFC substrate
Type: cell-based, human
Conditions: 100 nM, 16 h of treatment
Experimental: Data are mean ± s.e.m. […] Data are given as mean ± s.e.m. […] Non-treated cells were used as control. (F, right panel) Densitometric quantification of cleaved caspase 3 and cleaved PARP levels (relative to control, non-treated cells). β-actin was used for loading normalization. Data are mean ± s.e.m.
Thus, we used the fluorogenic substrate Ac–DEVD–AFC as an indicator of the activation of effector caspases, which are the executioners of apoptosis.
(E) HeLa cells were treated as in (D) and apoptosis was assessed by DEVDase activity (right panel) and western blot of PARP1 and caspase-3 (left panel). β-actin was used for loading normalization. Data are mean ± s.e.m.
DEVDase activity was determined in 30 g of RIPA total protein cell lysate (without protease
inhibitors). Cleavage of the fluorogenic substrated Ac-DEVD-AFC. Caspase 3 and PARP
cleavage were determined in 50 g RIPA total protein cell lysate of control and treated cells.

With `CO/C1=C\C(C)=C\[C@@H](C)[C@@H](O)[C@@H](C)C/C(C)=C/C=C/[C@H](OC)[C@@H]([C@@H](C)[C@@H](O)[C@H](C)[C@@]2(O)C[C@@H](O)[C@H](C)[C@@H](C(C)C)O2)OC1=O` [bafilomycin A1] the “apoptosis induction (DEVDase activity, PARP1 and caspase-3 western blot)” value was “induces apoptosis”.
